Several values for one entry are separate records, joined by “and”; a condition that tells them apart may be missing. Equal values may be shown once. Activity calls are given as the source filed them.
How the values were obtained:
[1] = target: Cytochrome P450 2C9 (Homo sapiens, UniProt P11712)
[2] = system: H9c2; test: cells; format: functional, cell-based; conditions: Rattus norvegicus, H9c2, Myocardium;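 further: confirmatory concentration-response retest of ultra-high-throughput screening hits for modulation of myocardial damage; cell death induced by hydrogen peroxide oxidative stress; compound pretreatment for 60 min then peroxide exposure for 2 h; potency is for protecting the cells against peroxide damage rather than for killing them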
[3] = target: Cytochrome P450 2D6 (Homo sapiens, UniProt P10635);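 further: CYP2D6 member of a cytochrome P450 panel assay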
Chain of Cytochrome P450 2D6 (P10635 whole entry): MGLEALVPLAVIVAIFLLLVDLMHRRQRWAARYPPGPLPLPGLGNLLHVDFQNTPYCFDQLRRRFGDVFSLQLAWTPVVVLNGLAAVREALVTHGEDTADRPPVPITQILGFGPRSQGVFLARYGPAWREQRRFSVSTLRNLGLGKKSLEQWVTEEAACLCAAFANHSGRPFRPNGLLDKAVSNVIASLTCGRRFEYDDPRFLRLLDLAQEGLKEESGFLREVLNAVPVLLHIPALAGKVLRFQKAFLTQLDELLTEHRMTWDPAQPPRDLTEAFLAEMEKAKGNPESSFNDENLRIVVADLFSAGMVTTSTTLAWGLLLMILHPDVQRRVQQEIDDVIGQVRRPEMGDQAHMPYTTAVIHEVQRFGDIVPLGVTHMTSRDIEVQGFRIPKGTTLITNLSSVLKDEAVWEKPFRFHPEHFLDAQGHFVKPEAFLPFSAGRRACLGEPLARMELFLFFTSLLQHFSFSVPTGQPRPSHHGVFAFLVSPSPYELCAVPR

[4] = target: Cytochrome P450 2C19 (Homo sapiens, UniProt P33261); test: Cytochrome panel assay with activity outcomes. Panel member name: p450-cyp2c19 Compounds with AC50 equal or less than 10 uM are considered active; format: functional; conditions: read-out: AC50
Chain of Cytochrome P450 2C19 (P33261 whole entry): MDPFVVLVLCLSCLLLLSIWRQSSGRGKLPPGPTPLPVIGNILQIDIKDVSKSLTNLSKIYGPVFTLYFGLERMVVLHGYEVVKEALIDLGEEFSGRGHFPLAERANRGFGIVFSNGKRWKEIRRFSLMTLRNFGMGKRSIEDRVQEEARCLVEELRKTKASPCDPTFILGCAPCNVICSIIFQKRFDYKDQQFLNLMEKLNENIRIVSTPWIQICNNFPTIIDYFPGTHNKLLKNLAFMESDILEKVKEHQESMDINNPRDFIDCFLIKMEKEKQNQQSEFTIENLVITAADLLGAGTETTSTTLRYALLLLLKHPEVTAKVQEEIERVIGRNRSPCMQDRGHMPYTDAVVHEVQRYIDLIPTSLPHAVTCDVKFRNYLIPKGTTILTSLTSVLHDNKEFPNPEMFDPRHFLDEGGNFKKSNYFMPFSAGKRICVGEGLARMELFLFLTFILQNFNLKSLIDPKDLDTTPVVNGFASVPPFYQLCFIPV

[5] = target: Cytochrome P450 3A4 (Homo sapiens, UniProt P08684);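 further: CYP3A4 tested as one member of a cytochrome P450 panel screen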
Chain of Cytochrome P450 3A4 (P08684 whole entry): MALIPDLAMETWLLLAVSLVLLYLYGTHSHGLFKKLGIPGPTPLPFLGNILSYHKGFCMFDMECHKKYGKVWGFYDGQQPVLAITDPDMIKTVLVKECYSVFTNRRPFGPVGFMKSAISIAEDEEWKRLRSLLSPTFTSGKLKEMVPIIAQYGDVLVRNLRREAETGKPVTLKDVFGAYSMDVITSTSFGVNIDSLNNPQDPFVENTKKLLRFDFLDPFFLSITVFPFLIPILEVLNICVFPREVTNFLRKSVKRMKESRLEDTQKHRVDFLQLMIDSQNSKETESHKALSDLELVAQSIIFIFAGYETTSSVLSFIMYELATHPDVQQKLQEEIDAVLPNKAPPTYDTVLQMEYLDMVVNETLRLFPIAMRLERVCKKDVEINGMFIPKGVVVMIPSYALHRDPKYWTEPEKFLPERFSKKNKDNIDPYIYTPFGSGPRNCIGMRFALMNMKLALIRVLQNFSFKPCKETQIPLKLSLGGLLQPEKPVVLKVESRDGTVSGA

[6] = target: T1, Cytochrome P450 1A2 (Homo sapiens, UniProt P05177);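 further: PubChem cytochrome P450 panel assay, CYP1A2 panel member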
T1 sequence (P05177 whole entry): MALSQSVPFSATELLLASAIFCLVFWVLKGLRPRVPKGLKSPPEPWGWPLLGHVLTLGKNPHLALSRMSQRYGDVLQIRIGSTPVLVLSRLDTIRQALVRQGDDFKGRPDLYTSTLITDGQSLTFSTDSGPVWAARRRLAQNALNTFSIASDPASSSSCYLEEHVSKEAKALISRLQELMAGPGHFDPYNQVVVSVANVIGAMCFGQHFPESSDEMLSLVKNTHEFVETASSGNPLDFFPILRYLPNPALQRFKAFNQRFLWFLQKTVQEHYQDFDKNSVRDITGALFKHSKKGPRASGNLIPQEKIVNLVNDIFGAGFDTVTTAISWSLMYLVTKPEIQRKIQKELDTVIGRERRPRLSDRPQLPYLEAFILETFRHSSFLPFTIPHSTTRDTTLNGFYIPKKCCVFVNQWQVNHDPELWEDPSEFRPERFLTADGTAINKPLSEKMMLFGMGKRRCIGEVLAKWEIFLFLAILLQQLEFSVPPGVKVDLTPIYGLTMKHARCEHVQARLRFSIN

[7] = target: T2, Heat shock factor protein 1 (Mus musculus, UniProt P38532); test: enhancement of HSF1-driven luciferase signal – cell-based, NIH3T3, luminescence, dose retest, confirmation (AID 435004); format: functional;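 further: stress induced by proteasome inhibitor MG132 added 30 min after compound; luciferase reporter driven by HSF1 response element in NIH3T3 cells; actives raise luminescence as potentiators of the MG132 stress response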
T2 sequence (P38532 whole entry): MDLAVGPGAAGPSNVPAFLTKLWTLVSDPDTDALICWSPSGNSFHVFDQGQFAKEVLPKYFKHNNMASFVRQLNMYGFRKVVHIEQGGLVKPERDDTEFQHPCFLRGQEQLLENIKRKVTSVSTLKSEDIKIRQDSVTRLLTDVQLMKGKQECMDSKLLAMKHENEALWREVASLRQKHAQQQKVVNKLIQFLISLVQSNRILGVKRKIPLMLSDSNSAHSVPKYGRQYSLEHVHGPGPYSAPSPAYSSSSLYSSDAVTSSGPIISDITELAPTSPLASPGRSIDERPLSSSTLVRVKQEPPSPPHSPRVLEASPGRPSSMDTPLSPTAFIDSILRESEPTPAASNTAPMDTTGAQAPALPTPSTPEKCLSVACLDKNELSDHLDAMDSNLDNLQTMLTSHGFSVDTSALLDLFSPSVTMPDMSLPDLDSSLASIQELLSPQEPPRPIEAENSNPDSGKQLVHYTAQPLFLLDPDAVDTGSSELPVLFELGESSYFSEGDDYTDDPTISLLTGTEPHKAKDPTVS

[8] = target: FAD-linked sulfhydryl oxidase ALR (Homo sapiens, UniProt P55789); test: ALR-catalysed DTT oxidation blockers – biochemical, H2O2 detection, luminescence, cherry-pick, dose response (AID 493248)
Chain of FAD-linked sulfhydryl oxidase ALR (P55789 whole entry): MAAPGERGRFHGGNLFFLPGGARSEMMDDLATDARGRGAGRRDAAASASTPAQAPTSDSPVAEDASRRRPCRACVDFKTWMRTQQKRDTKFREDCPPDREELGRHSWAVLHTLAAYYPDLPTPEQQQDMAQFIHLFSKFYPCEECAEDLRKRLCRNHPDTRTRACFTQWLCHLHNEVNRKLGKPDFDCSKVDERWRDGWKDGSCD

[9] = target: Luciferin 4-monooxygenase (Photinus pyralis, UniProt P08659); test: inhibition of purified Photinus pyralis luciferase – biochemical, luminescence, dose response (AID 1891)
Chain of Luciferin 4-monooxygenase (P08659 whole entry): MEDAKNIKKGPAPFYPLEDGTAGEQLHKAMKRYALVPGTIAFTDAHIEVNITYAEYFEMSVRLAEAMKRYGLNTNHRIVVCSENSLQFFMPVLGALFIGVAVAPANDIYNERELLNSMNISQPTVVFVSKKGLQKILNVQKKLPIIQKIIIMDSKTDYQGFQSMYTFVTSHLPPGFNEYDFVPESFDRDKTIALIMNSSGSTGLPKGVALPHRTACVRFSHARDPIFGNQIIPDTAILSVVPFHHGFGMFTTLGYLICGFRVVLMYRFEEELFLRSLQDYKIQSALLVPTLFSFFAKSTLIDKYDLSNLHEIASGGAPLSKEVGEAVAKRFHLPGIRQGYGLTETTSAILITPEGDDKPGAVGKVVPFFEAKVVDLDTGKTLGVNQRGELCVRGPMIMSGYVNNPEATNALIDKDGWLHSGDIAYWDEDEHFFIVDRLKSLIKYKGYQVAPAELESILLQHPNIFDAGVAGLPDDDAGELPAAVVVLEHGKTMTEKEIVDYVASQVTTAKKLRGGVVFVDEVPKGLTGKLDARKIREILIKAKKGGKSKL

[10] = Luminescence Cell-Based Dose Confirmation HTS to Identify Inhibitors of Platelet Dense Granule Release. [Related pubchem assays: 1663 (Primary HTS), 1678 (Summary of Project)]; format: functional
[11] = target: T3, Microphthalmia-associated transcription factor (Homo sapiens, UniProt O75030); test: reducers of TRPM1 reporter luminescence, concentration series – cell-based, SK-MEL-5, cherry-picked, set 3, MITF inhibitor project, dose response (AID 493073); format: functional;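 further: SK-MEL-5 melanoma cells with luciferase driven by the MITF target TRPM1 promoter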
T3 sequence (O75030 whole entry): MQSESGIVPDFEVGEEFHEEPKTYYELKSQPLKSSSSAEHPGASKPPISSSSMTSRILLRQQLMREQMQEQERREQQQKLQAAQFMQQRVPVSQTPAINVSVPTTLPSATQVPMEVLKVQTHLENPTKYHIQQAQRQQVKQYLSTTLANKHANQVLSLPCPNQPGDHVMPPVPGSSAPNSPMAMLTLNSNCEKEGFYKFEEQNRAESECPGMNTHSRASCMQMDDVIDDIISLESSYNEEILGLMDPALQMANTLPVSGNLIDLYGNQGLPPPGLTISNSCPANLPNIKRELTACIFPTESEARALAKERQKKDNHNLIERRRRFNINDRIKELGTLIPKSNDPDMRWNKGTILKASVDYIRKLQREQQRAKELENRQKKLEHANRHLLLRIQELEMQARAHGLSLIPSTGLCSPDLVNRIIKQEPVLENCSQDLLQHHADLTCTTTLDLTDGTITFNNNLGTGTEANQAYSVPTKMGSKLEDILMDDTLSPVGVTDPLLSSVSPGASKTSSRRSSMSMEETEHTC

Chain of Cytochrome P450 2C9 (P11712 whole entry): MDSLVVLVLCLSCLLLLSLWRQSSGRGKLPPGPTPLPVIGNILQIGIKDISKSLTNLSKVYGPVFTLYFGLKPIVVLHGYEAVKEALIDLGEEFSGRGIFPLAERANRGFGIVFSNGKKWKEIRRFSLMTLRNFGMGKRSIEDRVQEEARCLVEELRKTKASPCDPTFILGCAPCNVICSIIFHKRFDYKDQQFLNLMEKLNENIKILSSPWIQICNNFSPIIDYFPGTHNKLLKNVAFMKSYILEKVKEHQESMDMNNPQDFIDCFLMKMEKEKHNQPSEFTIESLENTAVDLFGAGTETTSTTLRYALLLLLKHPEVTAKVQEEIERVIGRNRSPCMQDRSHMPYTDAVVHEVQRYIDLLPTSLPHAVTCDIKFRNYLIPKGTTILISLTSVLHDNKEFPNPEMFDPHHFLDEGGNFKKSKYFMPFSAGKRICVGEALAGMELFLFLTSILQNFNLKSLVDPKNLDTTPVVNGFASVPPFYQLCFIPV

O=C(Nc1ccc(Cl)cc1)NC1CCCCC1
AC50 [1]: 12.6 µM (inconclusive)

COc1cccc(Nc2nc3ccccc3n3cnnc23)c1
IC50 [2]: > 79 µM (inactive)

COc1cc(CNn2nnnc2N)ccc1OCc1c(Cl)cccc1Cl
AC50 [1]: 25.1 µM (inconclusive)

COc1ccccc1CNc1cc(-c2ccc(C(=O)N(C)C)cc2)ncn1
AC50 [3]: 12.6 µM (inconclusive)

COCC(=O)N1CCC2(CC1)CN(C(=O)Nc1ccccc1)C2
AC50 [3]: 39.8 µM (inconclusive)

CCC/C=C(\CCC)C(NP(=O)(c1ccccc1)c1ccccc1)c1ccc(C(F)(F)F)cc1 (stereo not given)
AC50 [4]: 39.8 µM (inconclusive) | AC50 [1]: 12.6 µM (inconclusive)

COc1ccc(CCN(C)CCc2ccc(OC)c(OC)c2)cc1OC
AC50 [3]: 31.6 µM (inconclusive) and 12.6 µM (inconclusive) | AC50 [5]: 15.8 µM (inconclusive) and 10 µM (inconclusive)

O=C(c1ccncc1)N1CCC2(CCCN(c3ccccn3)C2)CC1
AC50 [3]: 25.1 µM (inconclusive)

O=C(OCc1cc(=O)n2ccsc2n1)c1ccc(O)cc1O
IC50 [2]: > 79 µM (inactive)

COc1cccc(Cn2c(=O)cnc3cncnc32)c1
AC50 [4]: 25.1 µM (inconclusive) | AC50 [3]: 25.1 µM (inconclusive) | AC50 [5]: 20 µM (inconclusive)

CCCC[C@@H]1C[C@H]1C(NC(=O)c1ccccc1)c1ccc(Cl)cc1 (stereo not given in full)
AC50 [3]: 20 µM (inconclusive) | AC50 [1]: 2.51 µM (inconclusive)

Brc1ccc(CSc2ccc3nnc(-c4cccnc4)n3n2)cc1
IC50 [2]: > 79 µM (inactive)

COc1cccc(Cn2c(=O)c(-c3ccc(F)cc3)nc3cnc(N4CCNCC4)nc32)c1
AC50 [4]: 39.8 µM (inconclusive) | AC50 [3]: 25.1 µM (inconclusive) | AC50 [6]: 25.1 µM (inconclusive)

CN(C)c1ncc2ncc(=O)n(Cc3ccc(F)cc3)c2n1
AC50 [3]: 12.6 µM (inconclusive)

COc1ccc(Oc2ncc3nc(-c4ccc(OC)cc4)c(=O)n(Cc4cccs4)c3n2)cc1
AC50 [6]: 15.8 µM (inconclusive) | AC50 [5]: 3.16 µM (inconclusive) | AC50 [1]: 3.16 µM (inconclusive)

COC(=O)[C@@]1(Cc2ccc(OC)cc2)[C@H]2c3cc(C(=O)N(C)C)n(Cc4c(CO)ncc(C)c4O)c3C[C@H]2CN1C(=O)c1ccccc1
AC50 [4]: 31.6 µM (inconclusive) | AC50 [3]: 20 µM (inconclusive)

Fc1cccc(-c2nnn3c2nc(Cl)c2ccccc23)c1
EC50 [7]: 13.6 µM (inconclusive)

CC(=O)c1cc(C#N)c(Oc2ccc(F)cc2)nc1C
AC50 [4]: 10 µM (inconclusive) | AC50 [1]: 3.98 µM (inconclusive)

COc1ccc(S(=O)(=O)N(C)c2ccc(C(=O)NCc3ccccn3)cc2)cc1
EC50 [7]: > 260 µM (inactive)

CC(=O)NC1C(OCCOc2ccc(Cl)cc2Cl)OC(COC(C)=O)C(OC(C)=O)C1OC(C)=O (stereo not given)
AC50 [4]: 15.8 µM (inconclusive) | AC50 [1]: 4.47 µM (inconclusive)

Cc1nc2nc(-c3ccc(F)cc3)cn2nc1C
EC50 [7]: > 260 µM (inconclusive)

CC1CCCC(C)N1C(=O)COC(=O)c1nnc(O)c2ccccc12 (stereo not given)
IC50 [2]: > 79 µM (inactive)

CN(CCCNC(=O)C1CCC(=O)N1Cc1ccccc1Cl)c1ccccc1 (stereo not given)
AC50 [8]: 0.398 µM (active) | AC50 [3]: 8.91 µM (inconclusive)

O=C(OCC(=O)N1CCCCCC1)c1nnc(O)c2ccccc12
IC50 [2]: > 79 µM (inactive)

COc1cccc(C(=O)C2=C(O)C(=O)N(c3ccccn3)C2c2ccc(OC)c(OC)c2)c1 (stereo not given)
AC50 [5]: 17.8 µM (inconclusive) | AC50 [1]: 15.8 µM (inconclusive)

CCC(C)C(=O)Nc1ncc2c(n1)CC(c1cccs1)CC2=O (stereo not given)
EC50 [9]: > 112 µM (not active) | EC50 [10]: > 112 µM (not active) | EC50 [7]: > 260 µM (inactive)

Cc1ccc(NC(=O)c2sc3ncn(CC(=O)N4CCOCC4)c(=O)c3c2C)c(Br)c1
EC50 [7]: > 260 µM (inactive)

CCCCc1c(O)n(-c2ccc(OC)cc2)c(SCC(=O)N2CCOCC2)nc1=O
EC50 [7]: > 260 µM (inactive)

O=C1CN=C(Nc2ccccc2)N1Cc1cccs1
AC50 [3]: 25.1 µM (inconclusive)

CNC(=O)NC(=S)NC(=O)c1ccc(OC)cc1
AC50 [5]: 31.6 µM (inconclusive) | AC50 [1]: 31.6 µM (inconclusive)

O=C(Cc1c(O)c2ccccc2oc1=O)c1ccc(C(F)(F)F)cc1
EC50 [7]: > 260 µM (inactive)

c1ccc(N2CCCC3(CCNCC3)C2)nc1
AC50 [4]: 20 µM (inconclusive) | AC50 [6]: 25.1 µM (inconclusive) | AC50 [5]: 15.8 µM (inconclusive) | AC50 [1]: 39.8 µM (inconclusive)

N#CCC(CNc1ncc(C(F)(F)F)cc1Cl)OC(=O)c1ccc(Cl)cc1Cl (stereo not given)
EC50 [7]: 42.6 µM (active)

COc1ccc(C(=O)COC(=O)Cn2[nH]c(=O)c3ccccc3c2=O)c(OC)c1
IC50 [2]: 17.5 µM (active)

O=C1NC2c3c(I)sc(I)c3C(=O)C2O1 (stereo not given)
AC50 [11]: 15.5 µM (active)

COC(=O)c1cnc2c(c(C)nn2C)c1OC
EC50 [7]: > 260 µM (inactive)

Fc1cccc(F)c1CN1CCN(c2ccc(Cl)cc2)CC1
EC50 [7]: > 260 µM (inactive)

COc1ccccc1C(=O)COC(=O)Cn1[nH]c(=O)c2ccccc2c1=O
IC50 [2]: 18.5 µM (active)

O=C(N/N=C/c1cn(-c2ccccc2)nc1-c1cccnc1)c1ccccc1
IC50 [2]: > 79 µM (inactive)

CCn1c(O)c(/C=N/N=C2CCCC2)c2ccc(C3=NNC(=O)CC3)cc21
IC50 [2]: > 79 µM (inactive) | AC50 [5]: 7.08 µM (inconclusive)

O=C(O)CC/C=C\C[C@@H]1CO[C@H](c2ccccc2Cl)O[C@@H]1c1ccccc1O
AC50 [3]: 20 µM (inconclusive) | AC50 [6]: 39.8 µM (inconclusive) | AC50 [5]: 15.8 µM (inconclusive)

COc1ccc(S(=O)(=O)N/N=c2\oc3c(OC)cccc3cc2S(=O)(=O)c2ccc(C)cc2)cc1OC
EC50 [7]: 67.1 µM (active)

Cc1c(C(=O)NN2CCOCC2)nn(-c2ccc(Cl)cc2Cl)c1-c1ccc(I)cc1
AC50 [3]: 12.6 µM (inconclusive) | AC50 [6]: 31.6 µM (inconclusive)

Cc1cc2[nH]c(=O)c3ccccc3n2n1
IC50 [2]: > 79 µM (inactive)

C[N+](C)(C)CC[N+]1(C)Cc2c(Cl)c(Cl)c(Cl)c(Cl)c2C1 [CHLORISONDAMINE]
AC50 [4]: 5.01 µM (inconclusive) | AC50 [3]: 15.8 µM (inconclusive)
